For one data set, the system named is lipid peroxidation. The note with it: in vitro and ex vivo; cited from earlier work.
For data set [1] the following is noted: lard, cottonseed oil, and butter oil; cited from earlier work.
For data set [2] the following is noted: milks produced during the dry-lot regime; cited from earlier work.
The next data set concerns rats. To be noted: high levels, long periods of time; cited from earlier work.
The nature of data set [3]: oxygen radical absorbance capacity (ORAC) assay. The data set is classed as biochemical. As to the method:
FIGS. 6 and 7 illustrate ORAC and CAP-e antioxidant tests conducted on Dihydroquercetin (taxifolin). The ORAC test measures the scavenging capacity at 37° C. of peroxyl radical induced by 2,2 -azobis-(2-amidinopropane) dihydrochloride (AAPH) using fluorescence at a wavelength of 565 nm with excitation at 540 nm. The results are calculated and expressed as milimoles of Trolox equivalents per gram. This test is widely used for evaluation and comparison of the antioxidant capacity in natural products and extracts and has been successfully applied to bioavailability studies, showing increased antioxidant capacity in serum in test subjects after consumption of antioxidant-rich foods.
Two different but synergistic testing principles are shown in FIG. 6: (A) The oxygen radical absorbance capacity (ORAC) assay is a chemical test, in which interference with specific chemical reactions are measured; (B) The cell-based antioxidant protection in erythrocytes (CAP-e) assay reflects whether antioxidants can enter into and protect live cells from oxidative damage. Dihydroquercetin (taxifolin) has the ORAChydrophilic assay over 15,000 μmol TE/g.

For data set [4] the following is noted: concentration 0.001%; cooled samples, traditional recipe; day 7 of storage; cited from earlier work.
The next data set deals with serum and liver lipids. The note with it: following exposure to toxic ionizing radiation; cited from earlier work.

SMILES strings stand for the structures. “And” between values parts separate entries of the source, which are not always exact repeats. Equal values may be shown once.

As for `O=C1c2c(O)cc(O)cc2OC(c2ccc(O)c(O)c2)C1O` (stereo not shown) [Dihydroquercetin (taxifolin)], in the data set on lipid peroxidation, the lipid peroxidation result is “inhibits”. In addition, the antioxidant effect result in data set [1] was “effective antioxidant”. In data set [2], the “development of spontaneous oxidation” value is “inhibited”. For the same compound, the toxic effects result in the data set with rats was “No toxic effects were observed”. Further, the ORAChydrophilic assay result in data set [3] is “over 15,000 μmol TE/g”. Further, the “peroxide values lower by” value in data set [4] is 57.1% and 58.60%. For the same compound, in the data set on serum and liver lipids, the “peroxidation of serum and liver lipids” value is “inhibited”.

The values are drawn from patent US20130287919A1, “METHOD OF USING DIETARY INGREDIENTS DIHYDROQUERCETIN (TAXIFOLIN), ARABINOGALACTAN AND ARABINOGALACTAN IN COMBINATION WITH DIHYDROQUERCETIN (TAXIFOLIN) FOR APPLICATIONS IN FOOD PRODUCTS” (FLAVITPURE, INC., priority 2012, published 2013).
